A word on the melting point: it is the temperature of the solid-liquid transition.

Results on one compound are retold here after patent publication US7115589B2, “Purine derivatives” (ARIAD Pharmaceuticals, Inc., priority 1999, dated 2006).

Molecules are shown by their SMILES.

As for `CCOP(=O)(OCC)c1ccc(Nc2nc(C3CCCC3)nc3c2ncn3C(C)C)cc1`, the melting point lay within 117 to 118 °C.
